Measurements as given in patent publication US20240067668A1, “HETEROARYL DERIVATIVE COMPOUND AND USE THEREOF” (VORONOI INC., priority 2020, published 2024).

What was measured:
EGFR Del19/T790M/C797S = EGFR Del19/T790M/C797S (Homo sapiens, UniProt P00533, C797S/T790M, form not given); assay: Enzyme IC50, EGFR Del19/T790M/C797S; format: biochemical
BaF3-EGFR (WT) cells = assay: Inhibitory activity on Ba/F3 cell proliferation (CellTiter-Glo, 72 hours); format: cell-based; details: Ba/F3 cells expressing EGFR WT
In short: (§1)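 Ba/F3 cells expressing wild-type EGFR or EGFR Del19/T790M/C797S, 3×10^3 per well, exposed 72 h at 37 °C to compound at 12 threefold dilutions, 0.00005-10 μM final. Viability by CellTiter-Glo 2.0; GI50 derived from growth relative to DMSO-treated cells.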

[1] = test system: BaF3-EGFR (Del19/T790M/C797S) cells; assay: as above; format: cell-based; details: Ba/F3 cells expressing EGFR Del19/T790M/C797S
In short: as §1

Chain of EGFR Del19/T790M/C797S (P00533 25-1210 T790M/C797S, form open): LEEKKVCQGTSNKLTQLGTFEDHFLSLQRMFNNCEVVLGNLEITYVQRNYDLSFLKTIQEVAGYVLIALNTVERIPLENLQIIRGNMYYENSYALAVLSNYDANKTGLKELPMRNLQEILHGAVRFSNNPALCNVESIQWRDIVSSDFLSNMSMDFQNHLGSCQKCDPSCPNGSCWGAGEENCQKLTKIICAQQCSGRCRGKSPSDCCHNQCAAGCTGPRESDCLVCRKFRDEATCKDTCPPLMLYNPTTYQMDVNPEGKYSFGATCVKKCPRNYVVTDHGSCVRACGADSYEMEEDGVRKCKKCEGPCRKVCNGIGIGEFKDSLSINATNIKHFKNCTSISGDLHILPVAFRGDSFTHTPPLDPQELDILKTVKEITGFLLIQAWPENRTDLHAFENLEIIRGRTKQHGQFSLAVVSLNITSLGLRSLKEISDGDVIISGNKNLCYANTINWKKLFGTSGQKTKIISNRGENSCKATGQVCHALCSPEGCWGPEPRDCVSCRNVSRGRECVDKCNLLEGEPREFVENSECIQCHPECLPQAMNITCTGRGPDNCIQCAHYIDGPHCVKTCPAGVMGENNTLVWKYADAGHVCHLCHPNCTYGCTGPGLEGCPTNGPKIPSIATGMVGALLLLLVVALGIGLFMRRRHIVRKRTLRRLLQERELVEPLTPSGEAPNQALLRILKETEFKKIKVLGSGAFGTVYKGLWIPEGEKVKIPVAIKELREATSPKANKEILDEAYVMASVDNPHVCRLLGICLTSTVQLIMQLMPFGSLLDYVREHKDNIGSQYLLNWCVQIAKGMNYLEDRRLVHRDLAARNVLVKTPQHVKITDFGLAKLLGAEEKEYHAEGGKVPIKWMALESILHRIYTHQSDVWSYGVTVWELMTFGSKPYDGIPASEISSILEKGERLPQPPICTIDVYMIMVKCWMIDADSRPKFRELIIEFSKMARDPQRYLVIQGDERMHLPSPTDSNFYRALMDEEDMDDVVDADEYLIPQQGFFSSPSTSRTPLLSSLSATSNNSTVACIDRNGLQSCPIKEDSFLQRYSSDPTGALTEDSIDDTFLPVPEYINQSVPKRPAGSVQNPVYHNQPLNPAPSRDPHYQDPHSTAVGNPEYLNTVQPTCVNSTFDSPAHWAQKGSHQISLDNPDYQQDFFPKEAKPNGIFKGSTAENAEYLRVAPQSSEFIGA

Compound | IC50 (EGFR Del19/T790M/C797S) [µM] | GI50 (BaF3-EGFR (WT) cells) [µM] | GI50 [1] [µM]
CN1CCN(c2cc(OCC(F)(F)F)c(Nc3nc(Nc4ccc5nccnc5c4P(C)(C)=O)c4cc[nH]c4n3)cc2-c2cnn(C)c2)CC1 [Example 1, dimethyl (6-((2-((5-(1-methyl-1H-pyrazol-4-yl)-4-(4-methylpiperazin-1-yl)-2-(2,2,2-trifluoroethoxy)phenyl)amino)-7H-pyrrolo[2,3-d]pyrimidin-4-yl)amino)quinoxalin-5-yl)phosphine oxide] | ≤ 0.05 | > 0.1 | 0.05 to 0.1
COc1cc(N2CCN(C)CC2)c(-c2cnc3ccccc3c2)cc1Nc1nc(Nc2ccc3nccnc3c2P(C)(C)=O)c2cc[nH]c2n1 [Example 71, (6-((2-((2-methoxy-4-(4-methylpiperazin-1-yl)-5-(quinolin-3-yl)phenyl)amino)-7H-pyrrolo[2,3-d]pyrimidin-4-yl)amino)quinoxalin-5-yl)dimethyl-phosphine oxide] | ≤ 0.05 | > 0.1 | > 0.1
COc1cc(N2CCC(N3CCN(C)CC3)CC2)c(-c2cnn(C)c2)cc1Nc1nc(Nc2ccc3nccnc3c2P(C)(C)=O)c2nc[nH]c2n1 [Example 105, (6-((2-((2-methoxy-5-(1-methyl-1H-pyrazol-4-yl)-4-(4-(4-methylpiperazin-1-yl)piperidin-1-yl)phenyl)amino)-9H-purin-6-yl)amino)quinoxalin-5-yl)dimethyl-phosphine oxide] | ≤ 0.05 | > 0.1 | > 0.1
CCn1cc(-c2cc(Nc3nc(Nc4ccc5nccnc5c4P(C)(C)=O)c4cc[nH]c4n3)c(OC)cc2N2CCN(C)CC2)cn1 [Example 47, (6-((2-((5-(1-ethyl-1H-pyrazol-4-yl)-2-methoxy-4-(4-methyl-piperazin-1-yl)phenyl)amino)-7H-pyrrolo[2,3-d]pyrimidin-4-yl)amino)quinoxalin-5-yl)dimethyl-phosphine oxide] | ≤ 0.05 | > 0.1 | ≤ 0.05
COc1cc(N2CCN(C)CC2)c(-c2cnn(C(F)F)c2)cc1Nc1nc(Nc2ccc3nccnc3c2P(C)(C)=O)c2cc[nH]c2n1 [Example 50, (6-((2-((5-(1-(difluoromethyl)-1H-pyrazol-4-yl)-2-methoxy-4-(4-methyl-piperazin-1-yl)phenyl)amino)-7H-pyrrolo[2,3-d]pyrimidin-4-yl)amino)quinoxalin-5-yl)dimethyl-phosphine oxide] | ≤ 0.05 | > 0.1 | ≤ 0.05
COc1cc(N2CCC(N3CCN(C(C)C)CC3)CC2)c(C)cc1Nc1nc(Nc2ccc3nccnc3c2P(C)(C)=O)c2cc[nH]c2n1 [Example 62, (6-((2-((4-(4-(4-isopropyl-piperazin-1-yl)piperidin-1-yl)-2-methoxy-5-methylphenyl)amino)-7H-pyrrolo[2,3-d]pyrimidin-4-yl)amino)quinoxalin-5-yl)dimethyl-phosphine oxide] | ≤ 0.05 | > 0.1 | 0.05 to 0.1
Cn1cc(-c2cc(Nc3nc(Nc4ccc5nccnc5c4P(C)(C)=O)c4cc[nH]c4n3)c(OCC(F)(F)F)cc2F)cn1 [Example 3, (6-((2-((4-fluoro-5-(1-methyl-1H-pyrazol-4-yl)-2-(2,2,2-trifluoroethoxy)phenyl)amino)-7H-pyrrolo[2,3-d]pyrimidin-4-yl)amino)quinoxalin-5-yl) dimethyl-phosphine oxide] | ≤ 0.05 | > 0.1 | > 0.1
COc1cc(N2CCN(C)CC2)c(-c2ccncc2)cc1Nc1nc(Nc2ccc3nccnc3c2P(C)(C)=O)c2cc[nH]c2n1 [Example 70, (6-((2-((2-methoxy-4-(4-methylpiperazin-1-yl)-5-(pyridin-4-yl)phenyl)amino)-7H-pyrrolo[2,3-d]pyrimidin-4-yl)amino)quinoxalin-5-yl)dimethyl-phosphine oxide] | ≤ 0.05 | > 0.1 | > 0.1
Cn1cc(-c2ccc(OCC(F)(F)F)c(Nc3nc(Nc4ccc5nccnc5c4P(C)(C)=O)c4cc[nH]c4n3)c2)cn1 [Example 5, dimethyl (6-((2-((5-(1-methyl-1H-pyrazol-4-yl)-2-(2,2,2-trifluoroethoxy)phenyl)amino)-7H-pyrrolo[2,3-d]pyrimidin-4-yl)amino)quinoxalin-5-yl)phosphine oxide] | 0.05 to 0.1 | 0.05 to 0.1 | > 0.1
Cn1cc(-c2cc(Nc3nc(Nc4ccc5nccnc5c4P(C)(C)=O)c4cc[nH]c4n3)c(OCC(F)(F)F)cc2N2CCOCC2)cn1 [Example 2, dimethyl (6-((2-((5-(1-methyl-1H-pyrazol-4-yl)-4-morpholino-2-(2,2,2-trifluoroethoxy)phenyl)amino)-7H-pyrrolo[2,3-d]pyrimidin-4-yl)amino)quinoxalin-5-yl) phosphine oxide] | ≤ 0.05 | > 0.1 | ≤ 0.05

Next, values leading:

IC50 (EGFR Del19/T790M/C797S) [µM] | GI50 (BaF3-EGFR (WT) cells) [µM] | GI50 [1] [µM] | Compound
≤ 0.05 | > 0.1 | ≤ 0.05 | COc1cc(N2CCN(CC3(F)CC3)CC2)c(-c2cnn(C)c2)cc1Nc1nc(Nc2ccc3nccnc3c2P(C)(C)=O)c2cc[nH]c2n1 [Example 113, (6-((2-((4-(4-((1-fluorocyclo-propyl)methyl)piperazin-1-yl)-2-methoxy-5-(1-methyl-1H-pyrazol-4-yl)phenyl)amino)-7H-pyrrolo[2,3-d]pyrimidin-4-yl)amino)quinoxalin-5-yl)dimethyl-phosphine oxide]
≤ 0.05 | 0.05 to 0.1 | ≤ 0.05 | Cn1cc(-c2cc(Nc3nc(Nc4ccc5nccnc5c4P(C)(C)=O)c4cc[nH]c4n3)c3c(c2N2CCC(N4CCOCC4)CC2)CCO3)cn1 [Example 120, dimethyl (6-((2-((5-(1-methyl-1H-pyrazol-4-yl)-4-(4-morpholino-piperidin-1-yl)-2,3-dihydrobenzo-furan-7-yl)amino)-7H-pyrrolo[2,3-d]pyrimidin-4-yl)amino)quinoxalin-5-yl)phosphine oxide]
≤ 0.05 | ≤ 0.05 | > 0.1 | C=CC(=O)Nc1cc(Nc2nc(Nc3ccc4nccnc4c3P(C)(C)=O)c3cc[nH]c3n2)c2c(c1N1CCC(N3CCN(C4CC4)CC3)CC1)OCCO2 [Example 133, N-(5-(4-(4-cyclopropyl-piperazin-1-yl)piperidin-1-yl)-8-((4-((5-(dimethyl-phosphoryl)quinoxalin-6-yl)amino)-7H-pyrrolo[2,3-d]pyrimidin-2-yl)amino)-2,3-dihydrobenzo [b][1,4]dioxin-6-yl)acrylamide]
≤ 0.05 | > 0.1 | ≤ 0.05 | CN1CCN(c2c(-c3cnn(C)c3)cc(Nc3nc(Nc4ccc5nccnc5c4P(C)(C)=O)c4cc[nH]c4n3)c3c2CCO3)CC1 [Example 116, dimethyl (6-((2-((5-(1-methyl-1H-pyrazol-4-yl)-4-(4-methyl-piperazin-1-yl)-2,3-dihydrobenzo-furan-7-yl)amino)-7H-pyrrolo[2,3-d]pyrimidin-4-yl)amino)quinoxalin-5-yl)phosphine oxide]
> 0.1 | > 0.1 | ≤ 0.05 | COc1cc(N2CCC3(CCN(C(=O)C4(F)CC4)CC3)CC2)c(-c2cnn(C)c2)cc1Nc1nc(Nc2ccc3nccnc3c2P(C)(C)=O)c2cc[nH]c2n1 [Example 111, (9-(4-((4-((5-(dimethyl-phosphoryl)quinoxalin-6-yl)amino)-7H-pyrrolo[2,3-d]pyrimidin-2-yl)amino)-5-methoxy-2-(1-methyl-1H-pyrazol-4-yl)phenyl)-3,9-diazaspiro[5.5]undecan-3-yl)(1-fluorocyclo-propyl) methanone]
